Molecules are shown by their SMILES.

These results are taken from ChEMBL document CHEMBL1152058, “Configurational variants of hydroxyphenylkainoid: their potent depolarizing activities in the rat central nervous system” (1992).

For this test, the species on record is Rattus norvegicus. Put plainly: Compound was evaluated for its depolarizing activity in the isolated rat spinal cord and the relative potency was determined. The class given is functional.
In the case of `O=C(O)C[C@H]1[C@@H](C(=O)O)NC[C@H]1c1ccccc1O`, the Relative potency is reported as 0.5. With `O=C(O)C[C@H]1[C@@H](C(=O)O)NC[C@@H]1c1ccccc1O` the figure was 2; with `O=C(O)C[C@@H]1[C@@H](C(=O)O)NC[C@@H]1c1ccccc1O`, 300; with `O=C(O)C[C@@H]1[C@@H](C(=O)O)NC[C@H]1c1ccccc1O`, 0.5. With `N[C@@H](CCC(=O)O)C(=O)O` [GLUTAMIC ACID] the figure was 1; with `C=C(C)[C@H]1CN[C@H](C(=O)O)[C@H]1CC(=O)O` [KAINIC ACID], 150.
